The subject of the experiment is Normal human keratinocytes (NHK). As to the kind of experiment: Carbonylation test (OxyELISA) after UV/visible irradiation. Format: cell-based. The conditions noted are these: SBE 200 nM; Tocopherol acetate 20 μM; 2 hours contact; 120 kJ/m^2; P-value <0.01. Here is the method:
By following the same UV/visible irradiation protocol as the one used above for the comet assay, the rate of carbonylation of keratinocytes in the presence of SBE and tocopherol acetate was measured.
• Normal human keratinocytes (NHK) (T6)-10^6 cells/condition • Conditions: • 1% THF solvent control • SBE 200 nM • Tocopherol acetate 20 μM • Each condition is carried out in triplicate. • Contact with KHNs in different experimental conditions for 2 hours. • UVB/UVA/Visible irradiation at 120 kJ/m^2 of the cells placed in PBS by a Suntest CPS+ solar simulator (Atlas Material Testing Technology) at 4° C. Negative controls are maintained at 4° C. for the same duration as the irradiation. • Trypsination of the cells post irradiation. Rinsing of the iced PBS. Elimination of the PBS and immediate freezing of the cell pellets at −80° C. 2—Measurement of the Carbonylation • The proteins are extracted after lysis of the cells and their concentration is measured using the Bradford test. • The proteins are derived by 2,4-dinitrophenylhydrazine (DNPH), which binds to the carbonyl groups. • The carbonylation rate is then measured on ELISA plates (OxyELISA™ Oxidized Protein Quantitation Kit, Millipore) at 450 nm. Results

Take `CC(=O)Oc1c(C)c(C)c2c(c1C)CCC(C)(CCC[C@H](C)CCC[C@H](C)CCCC(C)C)O2` (stereo partly shown) [tocopherol acetate]: the “increase of the rate of carbonylation of keratinocyte proteins after UV/visible irradiation” value is given as “decreases significantly”.
